A short description of this series: dermal toxicity of granular formulations (dermal LD50), male albino rabbits. The settings on record: rabbit, in vivo, topical or ocular, Table I, 24 h cuff, 14 days observation, O,O-diethyl S-{[(1,1-dimethylethyl)thio]methyl}phosphorodithioate. The text has this: General method for the evaluation of dermal toxicity of the formulations of the present invention using male albino rabbits as the test animals
a. Five male albino rabbits weighing approximately 2.2 to 3.5 kilogram are selected for each dosage level. The hair is shaved from the entire trunk.
b. Saran tubing or "Vinylite" film VU1900, 30.5 cm (12") wide, 0.04 millimeter in thickness and long enough to fit around the rabbit.
c. One felt cloth bandage measuring approximately 22.9×45.7 cm (9"×18").
d. Four pieces of 3.8 cm (1.5") adhesive tape approximately 35.6 cm (14") long.
a. The granular material is placed in the center of the plastic film and is moistened with water.
b. The rabbits underside is moistened with water and the animals are placed belly down on the material.
c. The plastic is then brought up and around the animal and secured at each end with strips of adhesive tape. The felt cloth is then placed under the belly and brought up around the animal and secured to the body with the remaining two strips of adhesive tape.
Twenty-four hours after dosing, the "cuff" is removed and any remaining material is brushed away. If the test material cannot be removed, the animal is fitted with a fiber collar which prevents the animal from licking the treatment area. The animals are observed for 14 days, post dosing, noting signs of toxicity, skin irritation and mortality. […]

Take `CCOP(=S)(OCC)SCSC(C)(C)C` [O,O-diethyl S-{[(1,1-dimethylethyl)thio]methyl}phosphorodithioate]: the LD50 at 336 h lay in the range of 1 to 2 mg/kg.

These data come from US4343790A, “Controlled release acrylic polymer coated granular pesticidal compositions with attendant reduced dermal toxicity” (priority 1980, dated 1982).
